From PubChem BioAssay AID1963969 (Molecular Pharmacology Branch, DTP, NCI, 2024)

Tested on: 817829-284-R-J1-PDC multi-cell spheroid viability
Assay: Anticancer human tumor 817829-284-R-J1-PDC patient-derived colon adenocarcinoma cell line growth inhibition [PI3K]
Details: for IC50: curve of first compound; for viability, T/C: stronger effect = lower value
Method in brief: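 Viability of mixed-cell spheroids was determined after exposure to pairwise combinations, one partner being inavolisib, alpelisib, duvelisib or copanlisib. Highest tested concentration matched clinical Cmax where known and 10 microM where not, descending in half-log steps.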

[1] = second compound 0.00316 µM, first compound 0.0316 µM
[2] = second compound 0.00316 µM, first compound 0.1 µM
[3] = second compound 0.01 µM, first compound 0.0316 µM
[4] = second compound 0.01 µM, first compound 0.1 µM
[5] = second compound 0.0316 µM, first compound 0.0316 µM
[6] = second compound 0.0316 µM, first compound 0.1 µM
[7] = second compound 0.0316 µM, first compound 0.316 µM
[8] = second compound 0.0316 µM, first compound 1 µM
[9] = second compound 0.0316 µM, first compound 3.16 µM
[10] = second compound 0.0316 µM, first compound 10 µM
[11] = second compound 0.1 µM, first compound 0.0316 µM
[12] = second compound 0.1 µM, first compound 0.1 µM
[13] = second compound 0.1 µM, first compound 0.316 µM
[14] = second compound 0.1 µM, first compound 1 µM
[15] = second compound 0.1 µM, first compound 3.16 µM
[16] = second compound 0.1 µM, first compound 10 µM
[17] = second compound 0.316 µM, first compound 0.0316 µM
[18] = second compound 0.316 µM, first compound 0.1 µM
[19] = second compound 0.316 µM, first compound 0.316 µM
[20] = second compound 0.316 µM, first compound 1 µM
[21] = second compound 0.316 µM, first compound 3.16 µM
[22] = second compound 0.316 µM, first compound 10 µM
[23] = second compound 1 µM, first compound 0.0316 µM
[24] = second compound 1 µM, first compound 0.1 µM
[25] = second compound 1 µM, first compound 0.316 µM
[26] = second compound 1 µM, first compound 1 µM
[27] = second compound 1 µM, first compound 3.16 µM
[28] = second compound 1 µM, first compound 10 µM
[29] = second compound 0.0316 µM, first compound 0.000316 µM
[30] = second compound 0.0316 µM, first compound 0.001 µM
[31] = second compound 0.0316 µM, first compound 0.00316 µM
[32] = second compound 0.0316 µM, first compound 0.01 µM
[33] = second compound 0.1 µM, first compound 0.000316 µM
[34] = second compound 0.1 µM, first compound 0.001 µM
[35] = second compound 0.1 µM, first compound 0.00316 µM
[36] = second compound 0.1 µM, first compound 0.01 µM
[37] = second compound 0.316 µM, first compound 0.000316 µM
[38] = second compound 0.316 µM, first compound 0.001 µM
[39] = second compound 0.316 µM, first compound 0.00316 µM
[40] = second compound 0.316 µM, first compound 0.01 µM
[41] = second compound 1 µM, first compound 0.000316 µM
[42] = second compound 1 µM, first compound 0.001 µM
[43] = second compound 1 µM, first compound 0.00316 µM
[44] = second compound 1 µM, first compound 0.01 µM
[45] = second compound 3.16 µM, first compound 0.0316 µM
[46] = second compound 3.16 µM, first compound 0.1 µM
[47] = second compound 10 µM, first compound 0.0316 µM
[48] = second compound 10 µM, first compound 0.1 µM
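Also: spheroids exposed to agents for seven days before readout.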
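For viability, T/C in this document: percent of vehicle DMSO control viability which is 100%.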

For `C=CC(=O)N1CCN(c2nc(=O)n(-c3c(C)ccnc3C(C)C)c3nc(-c4c(O)cccc4F)c(F)cc23)C(C)C1` (stereo not drawn) + CC(Nc1ccc2c(c1)OCCn1cc(N3C(=O)OCC3C(F)F)nc1-2)C(N)=O, the IC50 (second compound 0.00316 µM) was > 10000 nM, the IC50 (second compound 0.01 µM) was > 10000 nM and the IC50 (second compound 0.0316 µM) was > 10000 nM. The IC50 (second compound 0.1 µM) was 6650 nM, the IC50 (second compound 0.316 µM) was > 10000 nM and the IC50 (second compound 1 µM) was > 10000 nM. For the same compound, the viability, T/C [1] was 91.4%, the viability, T/C [2] was 93.3% and the viability, T/C (second compound 0.00316 µM, first compound 0.316 µM) was 82.9%. For the same compound, the viability, T/C (second compound 0.00316 µM, first compound 1 µM) was 71.9%, the viability, T/C (second compound 0.00316 µM, first compound 3.16 µM) was 77.9% and the viability, T/C (second compound 0.00316 µM, first compound 10 µM) was 55.4%. The viability, T/C [3] was 62.7%, the viability, T/C [4] was 57.7% and the viability, T/C (second compound 0.01 µM, first compound 0.316 µM) was 83.9%. It also gave a viability, T/C (second compound 0.01 µM, first compound 1 µM) of 78.6%, a viability, T/C (second compound 0.01 µM, first compound 3.16 µM) of 84.8% and a viability, T/C (second compound 0.01 µM, first compound 10 µM) of 38.9%. It also gave a viability, T/C [5] of 53.8%, a viability, T/C [6] of 112% and a viability, T/C [7] of 108%. It also gave a viability, T/C [8] of 51.1%, a viability, T/C [9] of 64% and a viability, T/C [10] of 73.7%. The viability, T/C [11] was 64.7%, the viability, T/C [12] was 92.2% and the viability, T/C [13] was 79.2%. It also gave a viability, T/C [14] of 84.2%, a viability, T/C [15] of 78.9% and a viability, T/C [16] of 34.1%. For the same compound, the viability, T/C [17] was 60.1%, the viability, T/C [18] was 75.9% and the viability, T/C [19] was 67.4%. The viability, T/C [20] was 52.6%, the viability, T/C [21] was 68% and the viability, T/C [22] was 44.6%. For the same compound, the viability, T/C [23] was 61.6%, the viability, T/C [24] was 53.9% and the viability, T/C [25] was 79.3%. For the same compound, the viability, T/C [26] was 57.3%, the viability, T/C [27] was 62.7% and the viability, T/C [28] was 53.5%.
Compound `Cn1ncnc1[C@H]1c2n[nH]c(=O)c3cc(F)cc(c23)N[C@@H]1c1ccc(F)cc1` + Cc1nc(NC(=O)N2CCCC2C(N)=O)sc1-c1ccnc(C(C)(C)C(F)(F)F)c1 has an IC50 (second compound 0.0316 µM) of 25.1 nM, an IC50 (second compound 0.1 µM) of 62.7 nM and an IC50 (second compound 0.316 µM) of 7.2 nM. It also gave an IC50 (second compound 1 µM) of 41.2 nM, an IC50 (second compound 3.16 µM) of 16.3 nM and an IC50 (second compound 10 µM) of 11.9 nM. It also gave a viability, T/C [29] of 60.7%, a viability, T/C [30] of 77% and a viability, T/C [31] of 72.5%. It also gave a viability, T/C [32] of 55.1%, a viability, T/C [5] of 49.4% and a viability, T/C [6] of 48%. The viability, T/C [33] was 78.6%, the viability, T/C [34] was 72.2% and the viability, T/C [35] was 69.1%. It also gave a viability, T/C [36] of 59.6%, a viability, T/C [11] of 53.9% and a viability, T/C [12] of 47.5%. It also gave a viability, T/C [37] of 84.8%, a viability, T/C [38] of 87.2% and a viability, T/C [39] of 55.5%. For the same compound, the viability, T/C [40] was 55.8%, the viability, T/C [17] was 37.2% and the viability, T/C [18] was 50.2%. For the same compound, the viability, T/C [41] was 59%, the viability, T/C [42] was 52.1% and the viability, T/C [43] was 54.5%. The viability, T/C [44] was 43.3%, the viability, T/C [23] was 70.2% and the viability, T/C [24] was 30.8%. For the same compound, the viability, T/C (second compound 3.16 µM, first compound 0.000316 µM) was 48.5%, the viability, T/C (second compound 3.16 µM, first compound 0.001 µM) was 72.7% and the viability, T/C (second compound 3.16 µM, first compound 0.00316 µM) was 60.7%. It also gave a viability, T/C (second compound 3.16 µM, first compound 0.01 µM) of 62.6%, a viability, T/C [45] of 33.1% and a viability, T/C [46] of 36.8%. The viability, T/C (second compound 10 µM, first compound 0.000316 µM) was 49.9%, the viability, T/C (second compound 10 µM, first compound 0.001 µM) was 54.9% and the viability, T/C (second compound 10 µM, first compound 0.00316 µM) was 60.7%. The viability, T/C (second compound 10 µM, first compound 0.01 µM) was 40.6%, the viability, T/C [47] was 50.8% and the viability, T/C [48] was 38.2%.
`CCCS(=O)(=O)Nc1ccc(F)c(C(=O)c2c[nH]c3ncc(-c4ccc(Cl)cc4)cc23)c1F` + CC(Nc1ncnc2nc[nH]c12)c1cc2cccc(Cl)c2c(=O)n1-c1ccccc1 gave an IC50 (second compound 0.0316 µM) of 4760 nM, an IC50 (second compound 0.1 µM) of 4210 nM and an IC50 (second compound 0.316 µM) of 3330 nM. The IC50 (second compound 1 µM) was 4310 nM, the IC50 (second compound 3.16 µM) was 1350 nM and the IC50 (second compound 10 µM) was 1790 nM. The viability, T/C [5] was 110%, the viability, T/C [6] was 61.7% and the viability, T/C [7] was 62.3%. For the same compound, the viability, T/C [8] was 52%, the viability, T/C [9] was 90.5% and the viability, T/C [10] was 4.04%. The viability, T/C [11] was 78%, the viability, T/C [12] was 72.6% and the viability, T/C [13] was 72.7%. The viability, T/C [14] was 89%, the viability, T/C [15] was 63.9% and the viability, T/C [16] was 7.99%. It also gave a viability, T/C [17] of 98.2%, a viability, T/C [18] of 70% and a viability, T/C [19] of 101%. It also gave a viability, T/C [20] of 60.6%, a viability, T/C [21] of 57.8% and a viability, T/C [22] of 4.81%. For the same compound, the viability, T/C [23] was 66.9%, the viability, T/C [24] was 70.5% and the viability, T/C [25] was 87%. It also gave a viability, T/C [26] of 38.3%, a viability, T/C [27] of 68.3% and a viability, T/C [28] of 6.14%. It also gave a viability, T/C [45] of 114%, a viability, T/C [46] of 89% and a viability, T/C (second compound 3.16 µM, first compound 0.316 µM) of 68.6%. For the same compound, the viability, T/C (second compound 3.16 µM, first compound 1 µM) was 59%, the viability, T/C (second compound 3.16 µM, first compound 3.16 µM) was 47.2% and the viability, T/C (second compound 3.16 µM, first compound 10 µM) was 8.3%. For the same compound, the viability, T/C [47] was 72.4%, the viability, T/C [48] was 75.2% and the viability, T/C (second compound 10 µM, first compound 0.316 µM) was 68.9%. The viability, T/C (second compound 10 µM, first compound 1 µM) was 49.8%, the viability, T/C (second compound 10 µM, first compound 3.16 µM) was 47.7% and the viability, T/C (second compound 10 µM, first compound 10 µM) was 9.39%.
Work on `CC(C)n1nc(-c2ccc3oc(N)nc3c2)c2c(N)ncnc21` + CC(Nc1ccc2c(c1)OCCn1cc(N3C(=O)OCC3C(F)F)nc1-2)C(N)=O yielded an IC50 (second compound 0.00316 µM) of 6.7 nM, an IC50 (second compound 0.01 µM) of 22.8 nM and an IC50 (second compound 0.0316 µM) of 8.64 nM. The IC50 (second compound 0.1 µM) was 4.55 nM, the IC50 (second compound 0.316 µM) was 4.35 nM and the IC50 (second compound 1 µM) was < 0.316 nM. For the same compound, the viability, T/C (second compound 0.00316 µM, first compound 0.000316 µM) was 112%, the viability, T/C (second compound 0.00316 µM, first compound 0.001 µM) was 51.6% and the viability, T/C (second compound 0.00316 µM, first compound 0.00316 µM) was 65.3%. The viability, T/C (second compound 0.00316 µM, first compound 0.01 µM) was 60.2%, the viability, T/C [1] was 27.9% and the viability, T/C [2] was 16.2%. For the same compound, the viability, T/C (second compound 0.01 µM, first compound 0.000316 µM) was 60.2%, the viability, T/C (second compound 0.01 µM, first compound 0.001 µM) was 63.8% and the viability, T/C (second compound 0.01 µM, first compound 0.00316 µM) was 69.5%. The viability, T/C (second compound 0.01 µM, first compound 0.01 µM) was 68.1%, the viability, T/C [3] was 43.9% and the viability, T/C [4] was 14.7%. The viability, T/C [29] was 114%, the viability, T/C [30] was 73.1% and the viability, T/C [31] was 73.9%. It also gave a viability, T/C [32] of 50.3%, a viability, T/C [5] of 28.1% and a viability, T/C [6] of 12.8%. It also gave a viability, T/C [33] of 59.7%, a viability, T/C [34] of 38.7% and a viability, T/C [35] of 76.4%. For the same compound, the viability, T/C [36] was 32%, the viability, T/C [11] was 32.1% and the viability, T/C [12] was 13.8%. For the same compound, the viability, T/C [37] was 53.7%, the viability, T/C [38] was 68.9% and the viability, T/C [39] was 48.7%. For the same compound, the viability, T/C [40] was 41.7%, the viability, T/C [17] was 22.2% and the viability, T/C [18] was 13.8%. It also gave a viability, T/C [41] of 56.8%, a viability, T/C [42] of 30.8% and a viability, T/C [43] of 38.3%. For the same compound, the viability, T/C [44] was 27.3%, the viability, T/C [23] was 79.8% and the viability, T/C [24] was 18.4%.
